From patent US20030055092A1, “Remedies for ischemic stroke” (priority 1998, published 2003)

Key:
[1] = tested on: gerbils exposed to 5 min of cerebral ischemia; settings: cited from earlier work
mGluR5 = molecular target: T1, mGluR5 (Rattus norvegicus, UniProt P31424); assay: agonist/antagonist activity in mGluR5a-expressing NIH3T3 cells; format: cell-based; settings: up to 10 μM
T1 construct: expressed in transfected cells; host or cells: NIH3T3
Procedure: (§1) NIH3T3 cells expressed mGluR1 α and mGluR5a individually were cultured in DMEM medium containing 10% dialyzed fetal bovine serum and 100 units/ml, 0.1 mg/ml streptomycin sulfate. CHO cells which expressed mGluR2, R3, R4, R6 and R7 individually were cultured in DMEM medium containing 10% dialyzed fetal bovine serum, 100 units/ml, 0.1 mg/ml streptomycin sulfate and 2 mM glutamine.

mGluR3 = molecular target: T2, mGluR3 (Rattus norvegicus, UniProt P31422); assay: forskolin-induced cAMP formation in mGluR3-expressing CHO cells; format: cell-based; settings: up to 100 μM
T2 construct: expressed in transfected cells; host or cells: CHO
Procedure: as §1, with “glutamine. Using the cells expressing mGluR2, R3, R4, R6 and R7 cAMP formation induced by forskolin in the presence of IBMX was measured using a cAMP measuring kit as previously described (Neuron, 8, 169-179, 1992).” for “glutamine.”

mGluR1α = molecular target: T3, mGluR1α (Rattus norvegicus, UniProt P23385); assay: glutamate-induced phosphatidylinositol (PI) hydrolysis in mGluR1α-expressing cells; format: cell-based; settings: 100 μM glutamate, read-out: IC50 for inhibition of glutamate-induced PI formation against mGluR1α
T3 construct: expressed in transfected cells; host or cells: NIH3T3
Procedure: as §1, with “glutamine. Hydrolysis of phosphatidylinositol was measured as previously described (Nature, 383, 89-92, 1996) using the mGluR1 α-expressing cells incorporated ^3H-inositol.” for “glutamine.”

mGluR7 = molecular target: T4, mGluR7 (Rattus norvegicus, UniProt P35400); assay: forskolin-induced cAMP formation in mGluR7-expressing CHO cells; format: cell-based; settings: up to 100 μM
T4 construct: expressed in transfected cells; host or cells: CHO
Procedure: as §1, with “glutamine. Using the cells expressing mGluR2, R3, R4, R6 and R7 cAMP formation induced by forskolin in the presence of IBMX was measured using a cAMP measuring kit as previously described (Neuron, 8, 169-179, 1992).” for “glutamine.”

[2] = tested on: Fischer-344 rat, permanent left MCA occlusion; assay: permanent MCA occlusion model, cerebral infarct volume (TTC staining); format: in vivo; settings: 6 mg/kg/h i.v. continuously for 24 hours from 5 minutes after occlusion
Procedure: Compound A was dissolved in physiological saline and adjusted to 6 mg/3 ml. In accordance with the known method (J. Pharmacol. Exp. Thr., 276, 84-92, 1996), left MCA of a Fischer-344 rat was subjected to permanent occlusion and, 5 minutes thereafter, the compound A was intravenously administered continuously for 24 hours at a rate of 6 mg/a dose volume of 3 ml/kg/h under no anesthesia and no restriction. After completion of the administration, the animal was decapitated to excise the brain which was subsequently stained with 2,3,5-triphenyltetrazolium hydrochloride (TTC) to measure infarct volume.

mGluR4 = molecular target: T5, mGluR4 (Rattus norvegicus, UniProt P31423); assay: forskolin-induced cAMP formation in mGluR4-expressing CHO cells; format: cell-based; settings: up to 100 μM
T5 construct: expressed in transfected cells; host or cells: CHO
Procedure: as §1, with “glutamine. Using the cells expressing mGluR2, R3, R4, R6 and R7 cAMP formation induced by forskolin in the presence of IBMX was measured using a cAMP measuring kit as previously described (Neuron, 8, 169-179, 1992).” for “glutamine.”

mGluR6 = molecular target: T6, mGluR6 (Rattus norvegicus, UniProt P35349); assay: forskolin-induced cAMP formation in mGluR6-expressing CHO cells; format: cell-based; settings: up to 100 μM
T6 construct: expressed in transfected cells; host or cells: CHO
Procedure: as §1, with “glutamine. Using the cells expressing mGluR2, R3, R4, R6 and R7 cAMP formation induced by forskolin in the presence of IBMX was measured using a cAMP measuring kit as previously described (Neuron, 8, 169-179, 1992).” for “glutamine.”

mGluR2 = molecular target: T7, mGluR2 (Rattus norvegicus, UniProt P31421); assay: forskolin-induced cAMP formation in mGluR2-expressing CHO cells; format: cell-based; settings: up to 100 μM
T7 construct: expressed in transfected cells; host or cells: CHO
Procedure: as §1, with “glutamine. Using the cells expressing mGluR2, R3, R4, R6 and R7 cAMP formation induced by forskolin in the presence of IBMX was measured using a cAMP measuring kit as previously described (Neuron, 8, 169-179, 1992).” for “glutamine.”

T5 sequence (P31423 33-912): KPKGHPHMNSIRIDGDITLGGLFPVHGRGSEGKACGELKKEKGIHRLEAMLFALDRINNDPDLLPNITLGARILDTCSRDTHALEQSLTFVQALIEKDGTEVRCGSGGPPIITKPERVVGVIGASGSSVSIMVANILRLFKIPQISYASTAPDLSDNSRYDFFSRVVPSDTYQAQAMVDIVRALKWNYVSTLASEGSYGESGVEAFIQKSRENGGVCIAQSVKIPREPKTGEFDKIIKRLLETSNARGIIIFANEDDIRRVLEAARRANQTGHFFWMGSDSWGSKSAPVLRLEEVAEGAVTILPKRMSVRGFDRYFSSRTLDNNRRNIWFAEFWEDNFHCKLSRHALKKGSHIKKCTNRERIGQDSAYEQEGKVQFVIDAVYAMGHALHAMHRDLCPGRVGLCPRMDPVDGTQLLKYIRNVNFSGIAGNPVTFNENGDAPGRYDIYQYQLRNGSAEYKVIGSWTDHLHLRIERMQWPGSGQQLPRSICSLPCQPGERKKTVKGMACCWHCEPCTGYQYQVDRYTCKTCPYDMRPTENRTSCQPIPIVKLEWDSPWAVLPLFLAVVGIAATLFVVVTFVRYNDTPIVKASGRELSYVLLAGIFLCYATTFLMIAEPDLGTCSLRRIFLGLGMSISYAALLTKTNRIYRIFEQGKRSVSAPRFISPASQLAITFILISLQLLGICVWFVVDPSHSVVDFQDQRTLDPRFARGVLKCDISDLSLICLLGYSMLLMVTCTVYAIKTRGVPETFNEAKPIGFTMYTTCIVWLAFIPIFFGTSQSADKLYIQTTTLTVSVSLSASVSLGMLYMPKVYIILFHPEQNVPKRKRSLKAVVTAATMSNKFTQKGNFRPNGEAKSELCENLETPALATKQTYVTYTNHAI
T6 sequence (P35349 24-871): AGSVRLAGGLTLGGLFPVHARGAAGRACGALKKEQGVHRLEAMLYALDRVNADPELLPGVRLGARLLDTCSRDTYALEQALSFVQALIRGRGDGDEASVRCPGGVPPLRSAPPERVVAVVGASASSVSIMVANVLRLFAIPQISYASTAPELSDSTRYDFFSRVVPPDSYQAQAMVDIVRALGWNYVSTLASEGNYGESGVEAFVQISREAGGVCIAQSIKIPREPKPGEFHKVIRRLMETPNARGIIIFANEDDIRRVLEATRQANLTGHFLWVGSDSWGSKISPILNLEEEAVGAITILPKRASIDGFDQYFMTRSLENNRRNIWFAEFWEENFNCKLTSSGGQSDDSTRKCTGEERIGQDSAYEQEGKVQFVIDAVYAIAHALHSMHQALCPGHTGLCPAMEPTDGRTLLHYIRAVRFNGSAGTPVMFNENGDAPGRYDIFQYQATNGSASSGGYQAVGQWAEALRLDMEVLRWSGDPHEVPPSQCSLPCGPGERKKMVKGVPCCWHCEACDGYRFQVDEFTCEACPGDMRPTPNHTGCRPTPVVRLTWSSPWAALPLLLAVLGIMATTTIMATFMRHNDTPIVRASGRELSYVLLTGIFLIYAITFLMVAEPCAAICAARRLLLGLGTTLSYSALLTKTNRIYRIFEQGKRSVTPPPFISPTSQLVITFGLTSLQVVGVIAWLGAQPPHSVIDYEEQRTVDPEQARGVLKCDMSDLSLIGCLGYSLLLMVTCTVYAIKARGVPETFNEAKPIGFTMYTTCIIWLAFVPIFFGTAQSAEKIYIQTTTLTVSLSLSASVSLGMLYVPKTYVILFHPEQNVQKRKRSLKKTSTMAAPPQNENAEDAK
T2 sequence (P31422 23-879): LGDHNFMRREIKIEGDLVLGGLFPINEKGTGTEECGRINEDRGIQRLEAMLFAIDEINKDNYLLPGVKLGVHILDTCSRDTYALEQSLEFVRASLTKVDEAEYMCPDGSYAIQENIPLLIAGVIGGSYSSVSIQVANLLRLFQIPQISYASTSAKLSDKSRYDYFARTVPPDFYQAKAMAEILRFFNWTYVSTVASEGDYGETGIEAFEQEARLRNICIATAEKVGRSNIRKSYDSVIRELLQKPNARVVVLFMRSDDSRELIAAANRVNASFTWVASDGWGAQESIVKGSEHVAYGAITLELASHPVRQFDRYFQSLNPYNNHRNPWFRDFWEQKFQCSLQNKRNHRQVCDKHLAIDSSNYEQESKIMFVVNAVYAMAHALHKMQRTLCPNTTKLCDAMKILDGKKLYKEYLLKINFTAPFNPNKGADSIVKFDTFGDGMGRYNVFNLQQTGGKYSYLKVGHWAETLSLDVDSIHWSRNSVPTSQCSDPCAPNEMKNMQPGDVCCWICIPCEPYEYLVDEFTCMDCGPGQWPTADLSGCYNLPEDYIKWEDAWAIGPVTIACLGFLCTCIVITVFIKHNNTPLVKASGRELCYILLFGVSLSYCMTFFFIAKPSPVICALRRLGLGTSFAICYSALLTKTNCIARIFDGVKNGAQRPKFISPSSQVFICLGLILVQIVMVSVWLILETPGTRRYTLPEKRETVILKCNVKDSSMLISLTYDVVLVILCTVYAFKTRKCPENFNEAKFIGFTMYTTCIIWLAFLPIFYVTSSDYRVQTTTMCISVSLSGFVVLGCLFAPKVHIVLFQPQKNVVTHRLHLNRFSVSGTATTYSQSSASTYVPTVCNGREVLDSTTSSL
T3 sequence (P23385 19-1199): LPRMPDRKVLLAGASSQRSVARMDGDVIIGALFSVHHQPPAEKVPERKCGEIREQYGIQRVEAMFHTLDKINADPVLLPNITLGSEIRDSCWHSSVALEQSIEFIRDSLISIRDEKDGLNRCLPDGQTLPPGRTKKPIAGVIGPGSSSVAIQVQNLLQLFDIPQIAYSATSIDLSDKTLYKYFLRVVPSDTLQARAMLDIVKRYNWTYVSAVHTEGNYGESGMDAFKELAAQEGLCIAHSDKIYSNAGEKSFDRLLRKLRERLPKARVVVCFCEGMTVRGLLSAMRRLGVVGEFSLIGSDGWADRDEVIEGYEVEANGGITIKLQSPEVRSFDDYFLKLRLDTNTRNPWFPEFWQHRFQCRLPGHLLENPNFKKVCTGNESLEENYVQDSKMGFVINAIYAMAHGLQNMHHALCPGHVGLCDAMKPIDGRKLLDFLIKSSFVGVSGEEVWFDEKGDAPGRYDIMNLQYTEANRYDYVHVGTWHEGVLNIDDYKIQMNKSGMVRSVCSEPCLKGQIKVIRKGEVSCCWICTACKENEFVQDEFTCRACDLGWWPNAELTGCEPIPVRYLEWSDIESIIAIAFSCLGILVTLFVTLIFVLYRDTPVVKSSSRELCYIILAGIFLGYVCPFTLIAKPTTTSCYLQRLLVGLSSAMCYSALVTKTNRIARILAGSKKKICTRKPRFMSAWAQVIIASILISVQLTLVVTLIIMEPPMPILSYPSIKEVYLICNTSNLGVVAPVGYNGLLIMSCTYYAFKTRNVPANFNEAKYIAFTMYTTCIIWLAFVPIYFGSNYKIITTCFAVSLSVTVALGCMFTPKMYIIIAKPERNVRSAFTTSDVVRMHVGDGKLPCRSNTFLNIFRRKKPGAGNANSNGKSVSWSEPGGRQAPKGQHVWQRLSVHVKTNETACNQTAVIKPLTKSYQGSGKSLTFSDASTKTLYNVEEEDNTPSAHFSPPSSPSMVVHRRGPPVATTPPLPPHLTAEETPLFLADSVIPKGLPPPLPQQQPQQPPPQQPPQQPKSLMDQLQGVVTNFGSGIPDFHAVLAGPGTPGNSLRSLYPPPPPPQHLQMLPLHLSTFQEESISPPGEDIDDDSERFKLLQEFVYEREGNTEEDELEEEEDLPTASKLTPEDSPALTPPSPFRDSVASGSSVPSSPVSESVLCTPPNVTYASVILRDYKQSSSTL
T7 sequence (P31421 19-872): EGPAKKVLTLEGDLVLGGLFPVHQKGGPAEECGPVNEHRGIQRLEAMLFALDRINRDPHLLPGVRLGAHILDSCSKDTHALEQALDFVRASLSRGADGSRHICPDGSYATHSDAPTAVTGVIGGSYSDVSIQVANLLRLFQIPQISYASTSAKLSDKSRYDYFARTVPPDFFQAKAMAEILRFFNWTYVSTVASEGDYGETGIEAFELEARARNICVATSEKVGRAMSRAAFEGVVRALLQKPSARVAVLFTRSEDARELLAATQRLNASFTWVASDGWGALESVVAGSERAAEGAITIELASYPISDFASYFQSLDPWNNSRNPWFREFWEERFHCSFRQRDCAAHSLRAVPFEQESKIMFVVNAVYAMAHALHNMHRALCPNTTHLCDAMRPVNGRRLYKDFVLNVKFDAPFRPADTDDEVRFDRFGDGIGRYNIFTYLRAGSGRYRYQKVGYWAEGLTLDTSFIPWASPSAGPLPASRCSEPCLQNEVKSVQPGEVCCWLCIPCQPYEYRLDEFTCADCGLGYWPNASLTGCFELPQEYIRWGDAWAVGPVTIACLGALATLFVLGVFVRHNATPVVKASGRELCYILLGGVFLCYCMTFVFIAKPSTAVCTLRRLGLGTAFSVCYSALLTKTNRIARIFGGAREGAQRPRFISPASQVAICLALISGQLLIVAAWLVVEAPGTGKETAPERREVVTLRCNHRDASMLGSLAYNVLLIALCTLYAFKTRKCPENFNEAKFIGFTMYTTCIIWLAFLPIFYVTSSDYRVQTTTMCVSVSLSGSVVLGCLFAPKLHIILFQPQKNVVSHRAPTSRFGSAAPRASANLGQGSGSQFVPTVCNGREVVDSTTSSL

## N[C@H](C(=O)O)c1ccc(C(=O)O)c(O)c1 [4 C3 HPG, (S)-4-carboxy-3 hydroxyphenylglycine]
[1]
  neuroprotective effectiveness in the same gerbil model: is effective

## N[C@H](C(=O)O)c1ccc(C(=O)O)cc1 [4 CPG, (S)-4-carboxyphenylglycine]
[1]
  neuroprotective effectiveness in the same gerbil model: is not effective

## NC1(C(=O)O)CCc2cc(C(=O)O)ccc21 (stereo not shown) [AIDA]
[1]; intraventricular administration
  loss of neuronal cells in CA1 area: reduced the loss of the neuronal cells

## Cc1c(C(=O)N(C)C2CCCCC2)sc2nc3ccc(N)cc3n12.Cl.Cl [compound A, 6-amino-N-cyclohexyl-N,3-dimethylthiazolo[3,2-a]benzoimidazole-2-carboxamide dihydrochloride]
mGluR5
  agonist and antagonist activities against mGluR5: no agonist and antagonist activities
mGluR3
  agonist and antagonist activities against mGluR3: no agonist and antagonist activities
mGluR1α
  IC50: 24 nM
mGluR7
  agonist and antagonist activities against mGluR7: no agonist and antagonist activities
[2]
  cerebral infarct volume suppression ratio in cerebral cortex: 36%
  cerebral infarct volume suppression ratio in cerebral hemisphere: 29%
  effect on cerebral infarct volume versus controls: reduced the cerebral infarct volume significantly
mGluR4
  agonist and antagonist activities against mGluR4: no agonist and antagonist activities
mGluR6
  agonist and antagonist activities against mGluR6: no agonist and antagonist activities
mGluR2
  agonist and antagonist activities against mGluR2: no agonist and antagonist activities
